Values quoted from earlier work as cited in patent US20070141140A1, “Semi-solid formulations for immediate release intended for the oral administration of drugs” (PHARMACIA ITALISA S.P.A., priority 2003, published 2007).

Settings: for weight concentration in the semi-solid matrix above which dissolution velocity drops significantly: polyethylene glycol or Gelucire 44/14 matrix

Row | Structure (SMILES) | weight concentration in the semi-solid matrix above which dissolution velocity drops significantly | active ingredient released (PEG 1500 matrix, 10% by weight Triamterene, 2 or 5% polysorbate 80 (Tween 80), in an hour)
1 | CN1C(=O)C(O)N=C(c2ccccc2)c2cc(Cl)ccc21 (stereo not drawn) [temazepam, Temazepam] | > 15% | –
2 | Nc1nc(N)c2nc(-c3ccccc3)c(N)nc2n1 [Triamterene] | exceeding 5% | at least 80%
